Columns and labels:
[1] = Selectivity ratio for human HeLa cells over human HSF cells after 72 hrs; type: ADME, cell-based; details: HeLa cells versus HSF cells
[2] = Selectivity ratio for human HeLa cells over human HSF cells after 48 hrs; type: ADME, cell-based; details: HeLa cells versus HSF cells
[3] = Selectivity ratio for human HeLa cells over human HSF cells after 24 hrs; type: ADME, cell-based; details: HeLa cells versus HSF cells
[4] = Toxicity in ip dosed albino-Swiss mouse; type: organism-based; details: in vivo
[5] = Selectivity ratio for human RPMI8226 cells over human HSF cells; type: ADME, cell-based, RPMI-8226; details: RPMI8226 cells versus HSF cells
[6] = Cytotoxicity against human HSF cells at 50 ug/ml by BrdU incorporation assay; type: cell-based; details: TDE = time-dependent effect
T47D [7] = experiment: Cytotoxicity against human T47D cells at 50 ug/ml after 72 hrs by BrdU incorporation assay relative to control; type: functional; details: read-out: GI
T47D [8] = experiment: Cytotoxicity against human T47D cells at 50 ug/ml after 48 hrs by BrdU incorporation assay relative to control; type: functional; details: read-out: GI
T47D [9] = experiment: Cytotoxicity against human T47D cells at 50 ug/ml after 24 hrs by BrdU incorporation assay relative to control; type: functional; details: read-out: GI
HeLa [10] = experiment: Cytotoxicity against human HeLa cells at 50 ug/ml after 72 hrs by BrdU incorporation assay relative to control; type: functional; details: read-out: GI
HeLa [11] = experiment: Cytotoxicity against human HeLa cells at 50 ug/ml after 48 hrs by BrdU incorporation assay relative to control; type: functional; details: read-out: GI
HeLa [12] = experiment: Cytotoxicity against human HeLa cells at 50 ug/ml after 24 hrs by BrdU incorporation assay relative to control; type: functional; details: read-out: GI
[13] = Cytotoxicity against human MM1S cells at 50 ug/ml after 72 hrs by BrdU incorporation assay relative to control; type: functional; details: MM1.S, read-out: GI
[14] = Cytotoxicity against human MM1S cells at 50 ug/ml after 48 hrs by BrdU incorporation assay relative to control; type: functional; details: MM1.S, read-out: GI
[15] = Cytotoxicity against human MM1S cells at 50 ug/ml after 24 hrs by BrdU incorporation assay relative to control; type: functional; details: MM1.S, read-out: GI
[16] = Cytotoxicity against human MM1R cells at 50 ug/ml after 72 hrs by BrdU incorporation assay relative to control; type: functional; details: MM.1R, read-out: GI
[17] = Cytotoxicity against human MM1R cells at 50 ug/ml after 48 hrs by BrdU incorporation assay relative to control; type: functional; details: MM.1R, read-out: GI
[18] = Cytotoxicity against human MM1R cells at 50 ug/ml after 24 hrs by BrdU incorporation assay relative to control; type: functional; details: MM.1R, read-out: GI
[19] = Cytotoxicity against human HSF cells at 50 ug/ml after 72 hrs by BrdU incorporation assay relative to control; type: cell-based; details: read-out: GI
[20] = Cytotoxicity against human HSF cells at 50 ug/ml after 48 hrs by BrdU incorporation assay relative to control; type: cell-based; details: read-out: GI
[21] = Cytotoxicity against human HSF cells at 50 ug/ml after 24 hrs by BrdU incorporation assay relative to control; type: cell-based; details: read-out: GI
[22] = Selectivity ratio for human T47D cells over human HSF cells after 72 hrs; type: ADME, cell-based; details: T47D cells versus HSF cells

Work on O=c1c(-c2ccco2)nnc2n1CCN2c1ccccc1Cl yielded a selectivity ratio at 72 h [1] of 5, a selectivity ratio at 48 h [2] of 4 and a selectivity ratio at 24 h [3] of 8.
With COc1ccc(N2CCn3c2nnc(-c2ccccc2)c3=O)cc1 the LD50 [4] was over 2000 mg/kg and the selectivity ratio [5] was 1.7.
For CCOC(=O)Cc1nnc2n(c1=O)CCN2c1ccc(Cl)cc1, the Activity [6] was “tde”, the inhibition of growth at 50 µg/mL (T47D [7]) was 50% and the inhibition of growth at 50 µg/mL (T47D [8]) was 50%. For the same compound, the inhibition of growth at 50 µg/mL (T47D [9]) was 50%, the inhibition of growth at 50 µg/mL (HeLa [10]) was 40% and the inhibition of growth at 50 µg/mL (HeLa [11]) was 30%. For the same compound, the inhibition of growth at 50 µg/mL (HeLa [12]) was 20%, the inhibition of growth at 50 µg/mL [13] was 90% and the inhibition of growth at 50 µg/mL [14] was 75%. For the same compound, the inhibition of growth at 50 µg/mL [15] was 45%, the inhibition of growth at 50 µg/mL [16] was 90% and the inhibition of growth at 50 µg/mL [17] was 85%. The inhibition of growth at 50 µg/mL [18] was 80%, the inhibition at 72 h, 50 ug/ml [19] was 80% and the inhibition at 48 h, 50 ug/ml [20] was 75%. The inhibition at 24 h, 50 ug/ml [21] was 50%.
For COc1ccccc1N1CCn2c1nnc(-c1ccco1)c2=O, the selectivity ratio at 72 h [22] was 14 and the selectivity ratio at 72 h [1] was 16.
For O=c1c(-c2ccco2)nnc2n1CCN2c1c(Cl)cccc1Cl, the selectivity ratio at 72 h [1] was over 6, the selectivity ratio at 48 h [2] was over 5 and the selectivity ratio at 24 h [3] was 8.
